Experimental data as given in patent US6555356B2, “Methods for microbial regulation” (Unisearch Limited, priority 1995, dated 2003).
≈ marks a conversion by molar mass, not a printed value.

What was measured:
Format in all cases: cell-based
[1] = system: Candida albicans; experiment: Fungal growth inhibition zone assay, Candida albicans
Experimental: (§1) In addition to the tests described above, the effects of selected compounds of the general formula 2 on growth of bacteria, one yeast (Candida albicans) and one fungus (Helminthosporium sp.) were assessed. Bacteria were grown in liquid media in the presence of different concentrations of furanones and growth measured via changes in optical density (OD). Fungal assays were done by inoculating agar plates with spores. These plates contained different concentrations of furanone compounds in wells within the plates. Zones of inhibition around these wells were measured after 48 hours.

[2] = system: Helminthosporium sp.; experiment: Fungal growth inhibition zone assay, Helminthosporium sp.
Experimental: as §1

[3] = system: Chromobacterium violencia mutant negative for the HSL auto inducer; experiment: Chromobacterium violencia (indigo) assay; conditions: for Effect on HSL phenotype: indigo formation: Chromobacterium violencia, 100 μg/ml; for Stimulation of indigo production by the compound itself: indigo negative Chromobacterium violencia mutant, addition of compound
Experimental: (§2) A mutant of Chromobacterium violencia negative for the HSL auto inducer was used in the assay. The strain was pour plated in LB medium at high density and wells were punched after the media had set. Sterile, filtered supernatants from various HSL producing strains were added to the wells. Plates were incubated at 30° C. and observed for the formation of purple zones (due to […]) around the wells. The effects of furanone compounds 1 and 2 (FIG. 3) were assessed by running this assay on plates of LB medium containing furanone compounds at a concentration of 100 μg/ml. The effects of the compounds on growth of Chromobacterium were assessed as above.

[4] = system: Chromobacterium violencia; experiment: Growth of Chromobacterium violencia; conditions: 100 μg/ml
Experimental: (§3) The effect on growth of Serratia liquefaciens by furanone compounds was also measured in liquid LB medium by comparing growth of cultures without the addition of compounds versus growth of cultures with added furanone compounds (100 μg/ml of compounds 1-13 (FIG. 3) in separate cultures). Growth was measured as optical density at 450 nm and followed over a 48 hr period.
as §2

[5] = system: strain R130; experiment: Marine isolate swimming, strain R130
[6] = system: Pseudomonas aeruginosa; experiment: Pseudomonas aeruginosa (elastase) assay; conditions: 100 μg/ml in elastin agar
Experimental: (§4) Inoculants from precultures were streaked onto Peptone-Tryptic Soy Broth agar containing 0.3% elastin. Plates were incubated at 37° C. and observed for hydrolysis of the elastin. The effect of furanone compounds was assess by adding compounds 1-4 (100 μg/ml) to the plates and comparing zones of hydrolysis in plates with and without the compounds.

[7] = system: strain V54; experiment: Marine isolate growth in liquid media, strain V54
Experimental: as §3
(§5) Methods followed those described for Serratia liquefaciens (above). Inhibition of growth of these bacteria by furanones was assessed as above.

[8] = system: strain V55; experiment: Marine isolate swimming, strain V55
[9] = system: strain V54; experiment: Marine isolate swimming, strain V54
[10] = system: strain R12; experiment: Marine isolate swarming, strain R12
Experimental: (§6) Serratia liquefaciens was grown in liquid LB medium at room temperature to an optical density of 0.3 at 450 nm and stable inoculated onto LB agar (0.7% agar) plates. Plates were incubated at 30° C. and observed regularly for swarming behaviour. The effect on swarming of furanone compounds was tested by adding (after sterilisation and cooling of the agar) compounds 1-13 (FIG. 3). in the concentration range of 5-100 μg/ml, to the plates.
as §5

[11] = system: strain V21; experiment: Marine isolate swimming, strain V21
[12] = system: Serratia liquefaciens; experiment: Growth of Serratia liquefaciens in liquid LB medium; conditions: 100 μg/ml
Experimental: as §3

[13] = system: strain R130; experiment: Marine isolate growth in liquid media, strain R130
Experimental: as §3, §5

[14] = system: Vibrio fisheri; experiment: Growth of Vibrio fisheri
Experimental: as §3
(§7) Initial assays for both strains of Vibrio were streaked onto LB agar plates (with 2% NaCl) with and without furanone compounds 1-4 at 5-100 μg/ml. Bioluminescence of the plates was visually assessed after 24 hours of incubation at room temperature. In subsequent assays, both strains were grown in liquid culture in the presence of furanones. Bioluminescence was assayed via a luminometer. The effects of furanones on growth of both strains were assayed as above.

[15] = system: strain R86; experiment: Marine isolate growth in liquid media, strain R86
Experimental: as §3, §5

[16] = system: strain R86; experiment: Marine isolate swimming, strain R86
[17] = system: strain R12; experiment: Marine isolate growth in liquid media, strain R12
Experimental: as §3, §5

[18] = system: strain R12; experiment: Marine isolate swimming, strain R12
[19] = system: strain R130; experiment: Marine isolate swarming, strain R130
Experimental: as §6, §5

[20] = system: Vibrio fisheri; experiment: Vibrio fisheri bioluminescence assay; conditions: 100 μg/ml, visual inspection of agar plates
Experimental: as §7

[21] = system: strain V21; experiment: Marine isolate growth in liquid media, strain V21
Experimental: as §3, §5

[22] = system: strain V21; experiment: Marine isolate swarming, strain V21
Experimental: as §6, §5

[23] = system: strain V54; experiment: Marine isolate swarming, strain V54
Experimental: as §6, §5

[24] = system: Vibrio harveyi; experiment: Vibrio harveyi bioluminescence assay; conditions: 100 μg/ml, visual inspection of agar plates
Experimental: as §7

[25] = system: strain R86; experiment: Marine isolate swarming, strain R86
Experimental: as §6, §5

[26] = system: Vibrio harveyi; experiment: Growth of Vibrio harveyi
Experimental: as §3, §7

[27] = system: Serratia liquefaciens; experiment: Serratia liquefaciens swarming assay; conditions: 5-100 μg/ml in LB agar (0.7%) plates
Experimental: as §6

[28] = system: strain V55; experiment: Marine isolate swarming, strain V55
Experimental: as §6, §5

[29] = system: strain V55; experiment: Marine isolate growth in liquid media, strain V55
Experimental: as §3, §5

[30] = system: Pseudomonas aeruginosa; experiment: Growth of Pseudomonas aeruginosa on plates; conditions: 100 μg/ml
Experimental: as §4

SMILES	width of inhibition zone ([1]; amount added 0.1 μg)	width of inhibition zone ([1]; amount added 1 μg)	width of inhibition zone ([1]; amount added 10 μg)	width of inhibition zone ([1]; amount added 100 μg)	width of inhibition zone ([2]; amount added 0.1 μg) [mm]	width of inhibition zone ([2]; amount added 1 μg)	width of inhibition zone ([2]; amount added 10 μg)	width of inhibition zone ([2]; amount added 100 μg)	Effect on HSL phenotype: indigo formation [3]	Stimulation of indigo production by the compound itself [3]	Effect on bacterial growth [4]	Minimum inhibitory concentration, Swimming [5] [µg/mL]	Effect on HSL phenotype: elastase [6]	Minimum inhibitory concentration, Growth [7] [µg/mL]	Minimum inhibitory concentration, Swimming [8] [µg/mL]	Minimum inhibitory concentration, Swimming [9] [µg/mL]	Minimum inhibitory concentration, Swarming [10] [µg/mL]	Minimum inhibitory concentration, Swimming [11] [µg/mL]	Effect on bacterial growth [12]	Minimum inhibitory concentration, Growth [13] [µg/mL]	other results
CCCCCCC1=CC(=C(Br)Br)OC1=O [Compound 13]	0 mm	0 mm	0 mm	1 mm	0	0 mm	0 mm	0 mm													
CCCCC1=CC(=C(Br)Br)OC1=O [Compound 8]	0 mm	0 mm	0 mm	0 mm	0	0 mm	0 mm	20 mm													
CCCCC1=C(Br)C(=C(Br)Br)OC1=O [Compound 1]	0 mm	0 mm	0 mm	1-2 mm	0	0 mm	2-5 mm	20 mm	inhibit	do not stimulate	no effect	>50	stimulated	>50	5 (≈ 12.9 µM)	5 (≈ 12.9 µM)	5 (≈ 12.9 µM)	25 (≈ 64.3 µM)	no effect	>50	Effect on bacterial growth [14]: no effect; Minimum inhibitory concentration, Growth [15]: >50 µg/mL; Minimum inhibitory concentration, Swimming [16]: 50 µg/mL (≈ 129 µM); Minimum inhibitory concentration, Growth [17]: >50 µg/mL; Minimum inhibitory concentration, Swimming [18]: >50 µg/mL; Minimum inhibitory concentration, Swarming [19]: 25 µg/mL (≈ 64.3 µM); Effect on HSL phenotype: luminescence [20]: inhibit; Minimum inhibitory concentration, Growth [21]: 25 µg/mL (≈ 64.3 µM); Minimum inhibitory concentration, Swarming [22]: 5 µg/mL (≈ 12.9 µM); Minimum inhibitory concentration, Swarming [23]: 25 µg/mL (≈ 64.3 µM); Effect on HSL phenotype: luminescence [24]: inhibit; Minimum inhibitory concentration, Swarming [25]: 25 µg/mL (≈ 64.3 µM); Effect on bacterial growth [26]: no effect; Effect on HSL phenotype: swarming [27]: inhibit; Minimum inhibitory concentration, Swarming [28]: 5 µg/mL (≈ 12.9 µM); Minimum inhibitory concentration, Growth [29]: >50 µg/mL
CCCCC1=C(Br)C(=CBr)OC1=O [Compound 2]	0 mm	0 mm	0 mm	2-3 mm	0	0 mm	2-4 mm	20 mm	inhibit	do not stimulate	no effect	>50	stimulated	>50	5 (≈ 16.1 µM)	5 (≈ 16.1 µM)	5 (≈ 16.1 µM)	25 (≈ 80.6 µM)	no effect	>50	Effect on bacterial growth [14]: no effect; Minimum inhibitory concentration, Growth [15]: >50 µg/mL; Minimum inhibitory concentration, Swimming [16]: >50 µg/mL; Minimum inhibitory concentration, Growth [17]: >50 µg/mL; Minimum inhibitory concentration, Swimming [18]: >50 µg/mL; Effect on bacterial growth [30]: no detectable effect; Minimum inhibitory concentration, Swarming [19]: 25 µg/mL (≈ 80.6 µM); Effect on HSL phenotype: luminescence [20]: inhibit; Minimum inhibitory concentration, Growth [21]: 25 µg/mL (≈ 80.6 µM); Minimum inhibitory concentration, Swarming [22]: 5 µg/mL (≈ 16.1 µM); Minimum inhibitory concentration, Swarming [23]: 5 µg/mL (≈ 16.1 µM); Effect on HSL phenotype: luminescence [24]: inhibit; Minimum inhibitory concentration, Swarming [25]: 5 µg/mL (≈ 16.1 µM); Effect on bacterial growth [26]: no effect; Effect on HSL phenotype: swarming [27]: inhibit; Minimum inhibitory concentration, Swarming [28]: 5 µg/mL (≈ 16.1 µM); Minimum inhibitory concentration, Growth [29]: >50 µg/mL
CCCC(OC(C)=O)C1=C(Br)C(=CI)OC1=O (stereo not drawn) [Compound 5]	0 mm	0 mm	1 mm	3-8 mm	0	2-4 mm	9-13 mm	20 mm													
C[C@@H]1[C@H](O)[C@@H](C)/C=C/C=C/C=C/C=C/C=C/C=C/C=C/[C@H](O[C@@H]2O[C@H](C)[C@@H](O)[C@H](N)[C@@H]2O)C[C@@H]2O[C@](O)(C[C@@H](O)C[C@@H](O)[C@H](O)CC[C@@H](O)C[C@@H](O)CC(=O)O[C@H]1C)C[C@H](O)[C@H]2C(=O)O [Amphotericin B, reference compound]	2-4 mm	5-7 mm	6-10 mm	1.14 mm	2	6 mm	6-8 mm	7-10 mm													
